pIC50: −log10 of the molar value.
Legend:
Assay type in all cases: binding
PARP16 = target: T1, PARP16 (Homo sapiens, UniProt Q8N5Y8); assay: In vitro TR-FRET probe displacement assay (Probe C), PARP16; conditions: TR-FRET displacement of Probe C, PARP16 residues 5-279
T1 construct: made in house; host or cells: E. coli
T1 sequence (Q8N5Y8 5-279 isoform Q8N5Y8-3): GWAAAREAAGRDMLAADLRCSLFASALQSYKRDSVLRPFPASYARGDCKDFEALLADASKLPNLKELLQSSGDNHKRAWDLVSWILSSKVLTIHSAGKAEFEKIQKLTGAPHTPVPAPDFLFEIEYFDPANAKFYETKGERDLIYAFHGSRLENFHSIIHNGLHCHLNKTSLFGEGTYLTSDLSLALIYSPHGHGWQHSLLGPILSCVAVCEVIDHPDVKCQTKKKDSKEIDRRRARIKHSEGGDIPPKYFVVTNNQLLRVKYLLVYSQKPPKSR
Procedure: (§1) A portion of PARP16 (residues 5 to 279 of NP_060321.3 (SEQ ID NO: 6), GenBank Accession No. NM_017851) was overexpressed in E. coli cells. An N-terminal fusion tag, […] (SEQ ID NO: 9), was used to purify the protein from cell lysates. The fusion tag was left on the protein for use in the probe displacement assay.
(§2) Displacement of a Probe C binding to monoPARP active sites was measured using a time-resolved fluorescence resonance energy transfer (TR-FRET) assay. 20 nL of a dose response curve of each test compound was spotted in black 384-well polystyrene proxiplates (Perkin Elmer) using a Mosquito (TTP Labtech). Reactions were performed in an 8 μL volume by adding 6 μL of the monoPARP and Probe C in assay buffer (20 mM HEPES pH=8, 100 mM NaCl, 0.1% bovine serum albumin, 2 mM DTT and 0.002% Tween20), incubating with test compound at 25° C. for 30 min, then adding 2 μL of ULight-anti 6×His and LANCE Eu-W 1024 labeled streptavidin (Perkin Elmer). Binding reactions were equilibrated at 25° C. for an additional 30 min, then read on an Envision platereader equipped with a LANCE/DELFIA top mirror (Perkin Elmer) using excitation of 320 nm and emission of 615 nm and […] with a 90 μs delay. The ratio of the 665/615 nm emission were calculated for each well to determine the amount of complex of monoPARP and Probe C in each well. […]

TIPARP = target: T2, TIPARP (Homo sapiens, UniProt Q7Z3E1); assay: In vitro TR-FRET probe displacement assay (Probe C), TIPARP; conditions: TR-FRET displacement of Probe C, TIPARP residues 456-657
T2 construct: made in house; host or cells: E. coli
T2 sequence (Q7Z3E1 456-657): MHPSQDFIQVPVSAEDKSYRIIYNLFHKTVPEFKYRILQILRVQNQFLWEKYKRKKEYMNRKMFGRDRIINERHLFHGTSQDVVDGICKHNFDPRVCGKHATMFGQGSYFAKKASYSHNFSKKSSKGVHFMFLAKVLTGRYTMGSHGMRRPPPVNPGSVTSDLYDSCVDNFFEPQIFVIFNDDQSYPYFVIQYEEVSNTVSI
Procedure: A portion of TIPARP (residues 456 to 657 of NP_056323.2 (SEQ ID NO: 1), GenBank Accession No. NM_015508.4) was overexpressed in E. coli cells. An N-terminal fusion tag, […] (SEQ ID NO: 7), was used to purify the protein from cell lysates. The fusion tag was left on the protein for use in the probe displacement assay.
as §2

PARP14 = target: T3, PARP14 (Homo sapiens, UniProt Q460N5); assay: In vitro TR-FRET probe displacement assay (Probe C), PARP14; design: made in house; host or cells: E. coli; conditions: TR-FRET displacement of Probe C, PARP14 residues 1611-1801
T3 sequence (Q460N5 1611-1801): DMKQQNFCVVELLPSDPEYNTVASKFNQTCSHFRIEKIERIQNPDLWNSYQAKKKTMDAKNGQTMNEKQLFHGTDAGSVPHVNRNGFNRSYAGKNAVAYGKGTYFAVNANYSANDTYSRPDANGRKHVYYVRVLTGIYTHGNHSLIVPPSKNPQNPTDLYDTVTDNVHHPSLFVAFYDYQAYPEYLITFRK
Procedure: as §1, with “PARP14” for “PARP16”, “1611” for “5”, “1801” for “279”, “NP_060024.2” for “NP_060321.3”, “4),” for “6),”, “NM_017554)” for “NM_017851)”
as §2

PARP10 = target: T4, PARP10 (Homo sapiens, UniProt Q53GL7); assay: In vitro TR-FRET probe displacement assay (Probe C), PARP10; design: made in house; host or cells: E. coli; conditions: TR-FRET displacement of Probe C, PARP10 residues 808-1025
T4 sequence (Q53GL7 808-1025): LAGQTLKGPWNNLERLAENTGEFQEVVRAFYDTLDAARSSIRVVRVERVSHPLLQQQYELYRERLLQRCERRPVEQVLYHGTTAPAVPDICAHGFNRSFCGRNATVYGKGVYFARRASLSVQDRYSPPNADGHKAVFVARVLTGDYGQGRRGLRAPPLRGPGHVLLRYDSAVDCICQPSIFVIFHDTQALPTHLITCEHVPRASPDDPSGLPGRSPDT
Procedure: A portion of PARP10 (residues 808 to 1025 of NP_116178.2 (SEQ ID NO: 2), GenBank Accession No. NM_032789.4) was overexpressed in E. coli cells. An N-terminal fusion tag, MAHHHHHHENLYFQSM (SEQ ID NO: 8), was used to purify the protein from cell lysates. The fusion tag was left on the protein for use in the probe displacement assay.
as §2

pIC50 (PARP16): 7.00
pIC50 (TIPARP): 8.15
pIC50 (PARP14): 7.30
pIC50 (PARP10): 7.10
Compound: O=c1[nH]ncc(N2Cc3ccc(OC4CCNCC4)cc3C2)c1C(F)(F)F [Compound A, 5-[5-(Piperidin-4-yloxy)-2,3-dihydro-1H-isoindol-2-yl]-4-(trifluoromethyl)-2,3-dihydropyridazin-3-one]
